Key:
SP6 polymerase = biological target: T1, SP6 polymerase (Enterobacteria phage SP6, UniProt P06221); assay: Analysis of cap orientation in in vitro-synthesized RNA transcripts by RNase T2 + TAP digestion and anion exchange HPLC; format: biochemical, bacteriophage SP6; settings: for Product observed RNase T2 + TAP: pGp* (normal orientation of the cap) / Product observed RNase T2 + TAP: 7-methylated pGp* product (reverse orientation of the cap): short RNA (43 bases) from Ncol-digested pSP-luc+, [α-32P]ATP, share of 5′ end labeled digestion product; for Orientation of incorporation into RNA (in words): RNase T2 and TAP digestion, HPLC, FIG. 2
T1 construct: purchased Promega
T1 sequence (P06221 1-874): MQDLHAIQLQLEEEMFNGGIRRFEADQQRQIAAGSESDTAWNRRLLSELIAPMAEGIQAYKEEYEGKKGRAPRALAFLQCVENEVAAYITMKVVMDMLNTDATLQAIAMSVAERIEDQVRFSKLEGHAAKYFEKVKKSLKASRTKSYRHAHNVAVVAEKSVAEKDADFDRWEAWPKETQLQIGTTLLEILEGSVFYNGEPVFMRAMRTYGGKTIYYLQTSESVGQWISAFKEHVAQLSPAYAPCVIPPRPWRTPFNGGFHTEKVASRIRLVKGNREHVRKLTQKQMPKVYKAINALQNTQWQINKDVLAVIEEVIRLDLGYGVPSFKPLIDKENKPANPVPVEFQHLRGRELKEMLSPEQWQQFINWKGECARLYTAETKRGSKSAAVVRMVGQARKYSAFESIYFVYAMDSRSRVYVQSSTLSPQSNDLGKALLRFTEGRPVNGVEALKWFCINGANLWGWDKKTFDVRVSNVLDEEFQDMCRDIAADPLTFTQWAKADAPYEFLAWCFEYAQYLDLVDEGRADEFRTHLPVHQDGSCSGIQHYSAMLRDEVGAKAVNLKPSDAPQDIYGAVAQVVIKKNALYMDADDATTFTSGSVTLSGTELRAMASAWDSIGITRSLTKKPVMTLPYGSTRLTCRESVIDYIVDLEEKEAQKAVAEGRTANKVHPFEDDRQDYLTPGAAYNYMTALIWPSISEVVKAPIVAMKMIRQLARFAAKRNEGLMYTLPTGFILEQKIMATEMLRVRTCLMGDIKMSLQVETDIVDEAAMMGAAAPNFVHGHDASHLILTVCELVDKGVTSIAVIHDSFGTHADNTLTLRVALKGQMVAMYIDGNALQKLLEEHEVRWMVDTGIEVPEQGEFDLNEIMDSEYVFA
Method: Mono- and dinucleotides obtained by enzymatic digestion of in vitro-synthesized RNAs were analyzed by HPLC using a Waters 625 instrument with a 996 PDA detector on a 4.5×250 mm Partisil 10SAX/25 column (Whatman). The program for elution of nucleotides comprised water for the first 5 min; a linear gradient of […]; a linear gradient of 87.5 to 500 mM of KH2PO4 over 30 min; and isocratic elution at 500 mM KH2PO4 for 21 min—all at a flow rate of 1 mL/min.
Two lengths of RNA, either uncapped or capped with one of the cap analogues, were synthesized by in vitro transcription. The DNA template used for both lengths of RNA was pSP−luc+ (Promega), which contains an SP6 bacteriophage promoter and a sequence encoding luciferase. To generate the short RNAs (43 bases exclusive of the cap), the plasmid was digested with Ncol. To generate the long RNAs (1706 bases, containing the entire luciferase coding region), the plasmid was digested with EcoRl. A typical 20 μL in vitro transcription reaction contained 40 mM Tris-HCl, pH 7.9, 6 mM MgCl2, 2 mM spermidine, 10 mM DTT, 2 μg BSA, 20 units of RNasin (Promega), 0.5 mM ATP, 0.5 mM CTP, 0.5 mM UTP, 0.1 mM GTP, 1 mM cap analogue (GpppG, m7GpppG, m^73′dGpppG, or m2^7,O3′GpppG), 0.2–1.0 μg DNA, and 20 units of SP6 polymerase (Promega). Reactions to synthesize the short RNAs also contained 28 μCi of [α-^32P]ATP (ICN), and those to synthesize the long RNAs contained 0.8 μCi of [α-^32P]CTP (ICN). Reaction mixtures were incubated for 60 min at 37° C., extracted with phenol and chloroform, and the solution was made 2 M in sodium acetate. The nucleic acids were then precipitated with 3 volumes of ethanol on dry ice for 5 min, and the mixture was centrifuged at 14,000 rpm for 30 min. The resulting pellet was dissolved in water, and the solution was made 0.2 M in sodium acetate. The nucleic acid was precipitated with 2.5 volumes of ethanol at 4° C. for 30 min, and the mixture was centrifuged at 14,000 rpm for 30 min. The pellet was allowed to air-dry and then dissolved in diethylpyrocarbonate-treated water.
The short RNAs were digested with 67 U RNase T2 (Life Technologies) in 15 μL of 0.14 M sodium acetate, pH 4.6, at 37° C. for 60 min. In some cases, the RNAs were subjected to a two-step digestion instead. The first digestion was with 10 U TAP (tobacco acid pyrophosphatase) (Epicentre Technologies) in 5 μL of 50 mM sodium acetate, pH 6.0, 1 mM EDTA, 0.1% β-mercaptoethanol, and 0.01% Triton X-100 at 37° C. for 60 min. The digestion was continued for 60 min at 37° C. with 67 U RNase T2 in a final volume of 16 μL of 0.12 M sodium acetate, pH 4.6. Samples were analyzed without further treatment by anion exchange HPLC as described above.
The structure of the ARCAs was designed to prevent incorporation into RNA in the reverse orientation. […] To obtain a higher proportion of radioactivity in the cap versus the internal positions, a shorter DNA template was produced by cleaving pSP−luc+ with Ncol instead of EcoRl. This digestion was expected to yield an RNA product of 43 bases (plus the cap).
RNase T2 digests RNA with no base specificity. Thus, it was expected to generate primarily 3′-NMPs from this RNA. Those nucleotide residues that were located 5′ to an A residue would acquire a ^32P-labeled 3′-phosphate by nearest-neighbor transfer. The pyrophosphate bonds in the cap, however, are not susceptible to RNase T2. Since the first nucleotide residue after the cap in the synthetic RNA is an A, the α-phosphate of [α-^32P]ATP would be transferred to the cap following RNase T2 digestion.

elF4E = biological target: T2, elF4E (Oryctolagus cuniculus, UniProt P29338); assay: Competitive inhibition of cell-free translation of globin mRNA in the RRL system; format: biochemical, rabbit; settings: FIG. 3
T2 construct: A micrococcal nuclease-treated RRL (rabbit reticulocyte lysate) system was used for in vitro translation; from tissue; host or cells: rabbit reticulocyte lysate, micrococcal nuclease-treated
Method: The ability of cap analogues to inhibit cell-free translation in the RRL system programmed with globin mRNA was measured as described in Cai et al. (1999). Data were fit by least squares minimization to a theoretical rate equation.
We separately tested GpppG, m^7GpppG, and the two ARCAs for their ability to compete with natural globin mRNA for recognition by the translational machinery, and thereby to inhibit translation in an RRL system. […] Natural rabbit globin mRNA was translated at 5 μg/mL in the RRL system, and globin synthesis was detected by incorporation of [^3H]Leu into protein.

[1] = test system: RRL (rabbit reticulocyte lysate) system; assay: Translation of capped luciferase mRNAs in the RRL system (luciferase activity); format: biochemical; settings: translated 60 min in RRL, slope of luciferase activity versus mRNA concentration, FIG. 4
From the text: Two lengths of RNA, either uncapped or capped with one of the cap analogues, were synthesized by in vitro transcription. The DNA template used for both lengths of RNA was pSP−luc+ (Promega), which contains an SP6 bacteriophage promoter and a sequence encoding luciferase. To generate the short RNAs (43 bases exclusive of the cap), the plasmid was digested with Ncol. To generate the long RNAs (1706 bases, containing the entire luciferase coding region), the plasmid was digested with EcoRl. […]
A micrococcal nuclease-treated RRL (rabbit reticulocyte lysate) system was used for in vitro translation as described in A. Cai et al., “Quantitative assessment of mRNA cap analogs as inhibitors of in vitro translation,” Biochemistry, vol.38, pp. 8538–8547 (1999). In some cases, the mRNA used in this system was natural rabbit globin mRNA, and protein synthesis was measured by incorporation of [^3H]Leu into a trichloroacetic acid-precipitable form. […]
FIG. 4 depicts the translational activity of the ARCA-capped mRNAs. […] The RNAs were translated for 60 min in the RRL system, and luciferase activity was measured in triplicate by luminometry (RLU, relative light units). […]

T2 sequence (P29338 whole entry): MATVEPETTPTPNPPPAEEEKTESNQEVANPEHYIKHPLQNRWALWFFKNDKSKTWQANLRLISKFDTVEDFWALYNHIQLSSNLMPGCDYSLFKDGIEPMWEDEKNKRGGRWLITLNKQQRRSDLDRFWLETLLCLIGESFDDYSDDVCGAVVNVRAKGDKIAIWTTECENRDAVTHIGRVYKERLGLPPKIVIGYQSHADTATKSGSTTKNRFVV

| SMILES | Product observed RNase T2 + TAP: pGp* (normal orientation of the cap) (SP6 polymerase) [%] | Inhibition of translation (in words) (elF4E; natural rabbit globin mRNA in RRL system) | Translational efficiency of capped luciferase mRNA (in words) [1] | Orientation of incorporation into RNA (in words) (SP6 polymerase) | Product observed RNase T2 + TAP: 7-methylated pGp* product (reverse orientation of the cap) (SP6 polymerase) [%] | Extent of reverse capping (SP6 polymerase; experiments of FIG. 2 and Table 3) | Ki (elF4E; natural rabbit globin mRNA 5 μg/mL, [3H]Leu incorporation, least-squares fit of translation data, read-out: Kl, dissociation constant for the cap analogue•elF4E complex) [µM] |
| --- | --- | --- | --- | --- | --- | --- | --- |
| Nc1nc2c(ncn2[C@@H]2O[C@H](COP(=O)(O)OP(=O)(O)OP(=O)(O)OC[C@H]3O[C@@H](n4cnc5c(=O)[nH]c(N)nc54)[C@H](O)[C@@H]3O)[C@@H](O)[C@H]2O)c(=O)[nH]1 [GpppG, reference compound] | 100 | did not act as an inhibitor | – | – | – | – | – |
| CO[C@H]1[C@@H](O)[C@H](n2c[n+](C)c3c(=O)[nH]c(N)nc32)O[C@@H]1COP(=O)(O)OP(=O)(O)OP(=O)(O)OC[C@H]1O[C@@H](n2cnc3c(=O)[nH]c(N)nc32)[C@H](O)[C@@H]1O [m2^7,O3′GpppG, P^1-3′-O, 7-Dimethylguanosine-5′P^3-guanosine-5′triphosphate] | 100 | – | more efficient in translation than m^7GpppG-capped mRNA | incorporated in only one orientation | 0 | – | – |
| Cn1c[n+](C2OC(COP(=O)(O)OP(=O)(O)OP(=O)(O)OCC3OC(n4cnc5c(=O)[nH]c(N)nc54)C(O)C3O)C(O)C2O)c2nc(N)nc([O-])c21 (centres unmarked) [m^7GpppG, m^7G(5′)ppp(5′)G, reference compound] | 67 | – | – | – | 33 | approximately 33% | 27.8 ± 12.6 |
| C[n+]1cn([C@@H]2O[C@H](COP(=O)(O)OP(=O)(O)OP(=O)(O)OC[C@H]3O[C@@H](n4cnc5c(=O)[nH]c(N)nc54)[C@H](O)[C@@H]3O)C[C@H]2O)c2nc(N)[nH]c(=O)c21 [m^73′dGpppG, P^1-3′-Deoxy-7-methylguanosine-5′ P^3-guanosine-5′triphosphate] | 100 | – | more efficient in translation than m^7GpppG-capped mRNA | incorporated in only a single orientation | 0 | – | – |

— patent US7074596B2, “Synthesis and use of anti-reverse mRNA cap analogues” (Board of Supervisors of Louisiana State University And …, priority 2002, dated 2006)
